The text below walks through data of publication PMC6301270 (MedChemComm, 2018).

The subject of one experiment is HeLa cells. The experiment is described as follows: HeLa cell assay (cytotoxicity). Format: cell-based. The conditions noted are these: Homo sapiens, HeLa cells, 48 hours, resazurin, read-out: HeLa IC50. How it is done: HeLa cells were cultured in DMEM medium supplemented with 10% fetal bovine serum and antibiotics (penicillin/streptomycin/amphotericin B) at 37 °C in a 5% CO2 incubator. On the day prior to compound addition, cells were plated in 96-well plates at 2 × 10^4 cells per well. Compounds were added to the cells in 3-fold serial dilutions and incubation at 37 °C in a 5% CO2 incubator continued for 48 hours. Twenty μl resazurin reagent (0.5 mM resazurin in phosphate-buffered saline) was added to each well and, after a 2-hour incubation, fluorescence (Exc560/Em590) was measured in a plate reader. Percentage cell viability in drug-treated wells was calculated from the fluorescent readings obtained relative to those in wells containing control, untreated cells. Plots of % cell viability vs. log[compound] were used to determine IC50 values by non-linear regression analysis using GraphPad Prism.
Background: Resazurin is reduced to fluorescent resorufin, in cell work by metabolically active cells.

For experiment [1], the system named is T.b. brucei (strain 427) bloodstream form parasites. The experiment is described as follows: T.b. brucei single concentration screen (10 μM). The conditions noted are these: Trypanosoma brucei, read-out: T.b.brucei % viability (10 µM).
For experiment [2] the test system is unchanged. The experiment can be described thus: Trypanosoma brucei assay, dose–response (this study). Format: cell-based. The conditions noted are these: for IC50: Trypanosoma brucei, 48 hours at 37 °C, resazurin, read-out: T. brucei brucei IC50 (μM) This study; for Selectivity index: calculated as IC50(HeLa)/IC50(T.bb).
Where [3] appears, read: Table 2, remaining Pathogen Box.

Read-outs that look alike come from different tables or passages of the source. A value given as a limit tells only on which side of the number the result lay.

What is called IC50 is the concentration that inhibits the measured activity by half. With `CC[C@H]1CN2CCc3cc(OC)c(OC)cc3[C@@H]2C[C@@H]1C[C@H]1NCCc2cc(OC)c(OC)cc21` [Emetine, reference compound], the IC50 with HeLa cells (Table 1) was determined as 0.4 µM.
A word on the viability: it is a read-out of living cells in per cent, often relative to untreated cells. With `Nc1nccc2ccc(-c3ccc4nccn4c3)cc12` [Compound 57, Nc1nccc2ccc(cc12)c3ccc4nccn4c3], the viability at 10 µM in experiment [1] amounted to 3%. Also, the values for the IC50 (in experiment [2] (setting [3]); with HeLa cells (Table 2)) were 1.2 µM and 5.4 µM, respectively. Further, in experiment [2], the Selectivity index is reported as 4.5.
Turning to `COc1ccc2nccc(NC(=O)C3CCN(CCc4ccc(Cl)cc4)CC3)c2n1` [Compound 47, COc1ccc2nccc(NC(=O)C3CCN(CCc4ccc(Cl)cc4)CC3)c2n1], in experiment [1], the viability at 10 µM was 7%. The values for the IC50 (in experiment [2] (setting [3]); in the experiment with HeLa cells (Table 2)) were 29 µM and above 25 µM, respectively.
In the case of `CCOC(=O)c1c(NC(=O)c2c(F)c(F)c(F)c(F)c2F)sc(C(N)=O)c1C` [Compound 37, CCOC(=O)c1c(C)c(sc1NC(=O)c2c(F)c(F)c(F)c(F)c2F)C(=O)N], the viability at 10 µM in experiment [1] came to 7%. Further, the IC50 in experiment [2] (setting [3]) is 11 µM; in the experiment on HeLa cells (Table 2) it was above 25 µM. In addition, in experiment [2], the Selectivity index is recorded as above 2.2.
For `CC(C)n1nc(-c2cc3c(Cl)cccc3[nH]2)c2c(N)ncnc21` [Compound 50, CC(C)n1nc(-c2cc3c(Cl)cccc3[nH]2)c2c(N)ncnc12] the same measures were 4%, 4.3 µM, above 25 µM and above 5.8.
On to `Cc1cnc(CCNC(=O)c2cc(-c3ccc(Cl)cc3)cs2)[nH]1` [MMV676350, Cc1cnc(CCNC(=O)c2cc(cs2)c3ccc(Cl)cc3)[nH]1], for which the viability at 10 µM in experiment [1] was found to be 47%.
As for `N=C(N)c1ccc(OCCCCCOc2ccc(C(=N)N)cc2)cc1` [Pentamidine, reference compound], in experiment [2] (Table 1, kinetoplastid category), the IC50 is 0.0031 µM.
Regarding `CCc1nc2ccc(C(=O)NCc3ccc4c(c3)OCO4)cn2c1N(C)Cc1cccs1` [MMV407539, CCc1nc2ccc(cn2c1N(C)Cc3cccs3)C(=O)NCc4ccc5OCOc5c4], the viability at 10 µM in experiment [1] was determined as 82%.
Turning to `COc1cccn2c(C(=O)N3CCCCC3)c(C(F)(F)F)nc12` [MMV1110498, FC(F)(F)C1=C(C(N2CCCCC2)=O)N(C=CC=C3OC)C3=N1], the viability at 10 µM in experiment [1] worked out at 99%.
Still for that read-out and setting: the result for `CC(C)n1ncc2c(C(=O)NCC(c3cccs3)N3CCOCC3)cc(-c3ccccc3)nc21` (centres unmarked) [MMV676406, CC(C)n1ncc2c(cc(nc12)c3ccccc3)C(=O)NCC(N4CCOCC4)c5cccs5] reads 61%.
Same read-out and setting: with `O=C(NCCc1ccccc1)c1cc(-c2cccnc2)cnc1NCC1CC1` [Compound 68, O=C(NCCc1ccccc1)c2cc(cnc2NCC3CC3)c4cccnc4] the figure was 79%.
Take `O=C(Nc1nnc(S)s1)c1cc(Br)ccc1Cl` [MMV676492, Sc1nnc(NC(=O)c2cc(Br)ccc2Cl)s1]: the viability at 10 µM in experiment [1] was determined as 106%.
On to `CCCCS(=O)(=O)Nc1ccc2cnn(C)c2c1` [MMV687145, CCCCS(=O)(=O)Nc1ccc2cnn(C)c2c1], for which, in experiment [1], the viability at 10 µM worked out at 95%.
With `COC(=O)C1=C(C)NC(C)=C(C(=O)OC(C)C)C1c1cccc2nonc12` (centres unmarked) [MMV001493, COC(=O)C1=C(C)NC(=C(C1c2cccc3nonc23)C(=O)OC(C)C)C], the viability at 10 µM in experiment [1] came out at 97%.
Regarding `COc1cccc(NC(=O)c2c(NC(=O)c3cccnc3)sc3c2CCC3)c1` [MMV228911, COc1cccc(NC(=O)c2c3CCCc3sc2NC(=O)c4cccnc4)c1], the viability at 10 µM in experiment [1] came to 97%.
On the same count and under the same terms, the result for `CC(C)(CN)c1nc(-c2ccc(Cl)c(O)c2)c(-c2ccnc(N)n2)[nH]1` [MMV030734, CC(C)(CN)c1nc(c2ccc(Cl)c(O)c2)c([nH]1)c3ccnc(N)n3] reads 33%; that for `c1ccc(Oc2ccc(-c3cncc(-c4ccc5[nH]ccc5c4)n3)cc2)cc1` [MMV688178, O(c1ccccc1)c1ccc(cc1)-c1cncc(n1)-c1ccc2[nH]ccc2c1], 101%.
Regarding `Cc1cc(OCC(=O)Nc2ccc(C(C)C)cc2)n(C)c(=O)c1C#N` [MMV1198433, CC(C)c1ccc(NC(=O)COC2=CC(=C(C#N)C(=O)N2C)C)cc1], the viability at 10 µM in experiment [1] amounted to 70%.
